Key:
[1] = test system: Leucine-rich repeat serine/threonine-protein kinase 2 (Homo sapiens), Q5S007 [G2019S]; settings: Compound concentration 1000.0 nM
[2] = molecular target: Mitogen-activated protein kinase kinase kinase kinase 4 (Homo sapiens) (UniProt O95819); settings: Compound concentration 1000.0 nM
[3] = molecular target: 5-hydroxytryptamine receptor 5A (Homo sapiens) (UniProt P47898); settings: Compound concentration 10.0 uM
[4] = test system: Serine/threonine-protein kinase B-raf (Homo sapiens), P15056 [V600E]; settings: Compound concentration 1000.0 nM
[5] = molecular target: Serine/threonine-protein kinase 17B (Homo sapiens) (UniProt O94768); settings: Compound concentration 1000.0 nM
[6] = molecular target: Serine/threonine-protein kinase WNK1 (Homo sapiens) (UniProt Q9H4A3); settings: Compound concentration 1000.0 nM
[7] = molecular target: Serine/threonine-protein kinase MRCK alpha (Homo sapiens) (UniProt Q5VT25); settings: Compound concentration 1000.0 nM
[8] = molecular target: Mitogen-activated protein kinase kinase kinase 5 (Homo sapiens) (UniProt Q99683); settings: Compound concentration 1000.0 nM
[9] = test system: Epidermal growth factor receptor (Homo sapiens), P00533 [L858R]; settings: Compound concentration 1000.0 nM
[10] = molecular target: Ribosomal protein S6 kinase alpha-2 (Homo sapiens) (UniProt Q15349); settings: Compound concentration 1000.0 nM
[11] = molecular target: Proto-oncogene tyrosine-protein kinase Src (Homo sapiens) (UniProt P12931); settings: Compound concentration 1000.0 nM
[12] = molecular target: Ribosomal protein S6 kinase alpha-4 (Homo sapiens) (UniProt O75676); settings: Compound concentration 1000.0 nM
[13] = molecular target: Tyrosine-protein kinase Blk (Homo sapiens) (UniProt P51451); settings: Compound concentration 1000.0 nM
[14] = molecular target: SRSF protein kinase 1 (Homo sapiens) (UniProt Q96SB4); settings: Compound concentration 1000.0 nM
[15] = molecular target: Tyrosine-protein kinase receptor Tie-1 (Homo sapiens) (UniProt P35590); settings: Compound concentration 1000.0 nM
[16] = molecular target: Ribosomal protein S6 kinase alpha-5 (Homo sapiens) (UniProt O75582); settings: Compound concentration 1000.0 nM
[17] = molecular target: Ephrin type-A receptor 4 (Homo sapiens) (UniProt P54764); settings: Compound concentration 1000.0 nM
[18] = test system: Tyrosine-protein kinase ABL1 (Homo sapiens), P00519 [Y253F]; settings: Compound concentration 1000.0 nM
[19] = molecular target: Activin receptor type-2A (Homo sapiens) (UniProt P27037); settings: Compound concentration 1000.0 nM
[20] = molecular target: Serine/threonine-protein kinase TAO3 (Homo sapiens) (UniProt Q9H2K8); settings: Compound concentration 1000.0 nM
[21] = molecular target: Ephrin type-B receptor 4 (Homo sapiens) (UniProt P54760); settings: Compound concentration 1000.0 nM
[22] = molecular target: ALK tyrosine kinase receptor (Homo sapiens) (UniProt Q9UM73); settings: Compound concentration 1000.0 nM
[23] = molecular target: Serine/threonine-protein kinase Nek3 (Homo sapiens) (UniProt P51956); settings: Compound concentration 1000.0 nM
[24] = molecular target: Myosin light chain kinase (Homo sapiens) (UniProt Q32MK0); settings: Compound concentration 1000.0 nM
[25] = molecular target: Homeodomain-interacting protein kinase 2 (Homo sapiens) (UniProt Q9H2X6); settings: Compound concentration 1000.0 nM
[26] = molecular target: Protein-tyrosine kinase 2-beta (Homo sapiens) (UniProt Q14289); settings: Compound concentration 1000.0 nM
[27] = molecular target: Phosphatidylinositol 4,5-bisphosphate 3-kinase catalytic subunit beta isoform (Homo sapiens) (UniProt P42338); settings: Compound concentration 1000.0 nM
[28] = molecular target: Macrophage colony-stimulating factor 1 receptor (Homo sapiens) (UniProt P07333); settings: Compound concentration 1000.0 nM
[29] = molecular target: Serine/threonine-protein kinase DCLK3 (Homo sapiens) (UniProt Q9C098); settings: Compound concentration 1000.0 nM
[30] = molecular target: Serine/threonine-protein kinase SBK1 (Homo sapiens) (UniProt Q52WX2); settings: Compound concentration 1000.0 nM
[31] = molecular target: Tyrosine-protein kinase JAK1 (Homo sapiens) (UniProt P23458); settings: Compound concentration 1000.0 nM
[32] = test system: Epidermal growth factor receptor (Homo sapiens), P00533 [UNDEFINED MUTATION]; settings: Compound concentration 1000.0 nM
[33] = molecular target: Cyclin-dependent kinase 7 (Homo sapiens) (UniProt P50613); settings: Compound concentration 1000.0 nM
[34] = test system: Proto-oncogene tyrosine-protein kinase receptor Ret (Homo sapiens), P07949 [V804L]; settings: Compound concentration 1000.0 nM
[35] = molecular target: Serine/threonine-protein kinase Nek6 (Homo sapiens) (UniProt Q9HC98); settings: Compound concentration 1000.0 nM
[36] = molecular target: Calcium/calmodulin-dependent protein kinase type 1 (Homo sapiens) (UniProt Q14012); settings: Compound concentration 1000.0 nM
[37] = molecular target: Cyclin-dependent kinase 11B (Homo sapiens) (UniProt P21127); settings: Compound concentration 1000.0 nM
[38] = test system: Tyrosine-protein kinase ABL1 (Homo sapiens), P00519 [F317I]; settings: Compound concentration 1000.0 nM
[39] = molecular target: Calcium/calmodulin-dependent protein kinase type II subunit alpha (Homo sapiens) (UniProt Q9UQM7); settings: Compound concentration 1000.0 nM
[40] = molecular target: Mitogen-activated protein kinase kinase kinase 13 (Homo sapiens) (UniProt O43283); settings: Compound concentration 1000.0 nM
[41] = test system: Receptor-type tyrosine-protein kinase FLT3 (Homo sapiens), P36888 [D835Y]; settings: Compound concentration 1000.0 nM
[42] = molecular target: Dual specificity protein kinase CLK1 (Homo sapiens) (UniProt P49759); settings: Compound concentration 1000.0 nM
[43] = molecular target: Serine/threonine-protein kinase 24 (Homo sapiens) (UniProt Q9Y6E0); settings: Compound concentration 1000.0 nM
[44] = molecular target: Serine/threonine-protein kinase N1 (Homo sapiens) (UniProt Q16512); settings: Compound concentration 1000.0 nM
[45] = molecular target: Ephrin type-B receptor 3 (Homo sapiens) (UniProt P54753); settings: Compound concentration 1000.0 nM
Ephrin type-B receptor 3 (Homo sapiens), sequence (P54753 whole entry): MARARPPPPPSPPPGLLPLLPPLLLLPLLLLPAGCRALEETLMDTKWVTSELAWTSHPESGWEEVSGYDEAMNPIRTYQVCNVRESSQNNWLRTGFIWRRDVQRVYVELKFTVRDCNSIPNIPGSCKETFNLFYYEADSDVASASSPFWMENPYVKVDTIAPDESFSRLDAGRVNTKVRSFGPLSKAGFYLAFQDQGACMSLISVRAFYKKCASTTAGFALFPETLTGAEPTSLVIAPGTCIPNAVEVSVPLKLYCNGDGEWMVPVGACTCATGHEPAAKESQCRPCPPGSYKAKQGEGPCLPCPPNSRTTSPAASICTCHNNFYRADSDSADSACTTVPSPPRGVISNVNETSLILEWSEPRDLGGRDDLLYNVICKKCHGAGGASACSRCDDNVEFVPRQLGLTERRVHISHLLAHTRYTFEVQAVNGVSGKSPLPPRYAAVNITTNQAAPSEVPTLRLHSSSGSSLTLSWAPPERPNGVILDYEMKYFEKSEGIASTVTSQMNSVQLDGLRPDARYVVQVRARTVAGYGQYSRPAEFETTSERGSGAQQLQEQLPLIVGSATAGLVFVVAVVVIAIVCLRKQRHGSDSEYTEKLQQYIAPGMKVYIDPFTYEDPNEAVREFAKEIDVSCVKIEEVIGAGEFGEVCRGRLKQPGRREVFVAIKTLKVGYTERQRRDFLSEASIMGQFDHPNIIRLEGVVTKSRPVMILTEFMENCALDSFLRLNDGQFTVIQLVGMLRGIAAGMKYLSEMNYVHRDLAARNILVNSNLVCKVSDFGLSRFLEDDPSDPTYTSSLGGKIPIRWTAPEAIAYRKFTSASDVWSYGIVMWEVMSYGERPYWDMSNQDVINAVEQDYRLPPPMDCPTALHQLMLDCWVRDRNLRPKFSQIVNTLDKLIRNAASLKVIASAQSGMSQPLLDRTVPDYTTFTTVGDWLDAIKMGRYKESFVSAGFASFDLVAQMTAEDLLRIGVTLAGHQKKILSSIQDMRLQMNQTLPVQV

Serine/threonine-protein kinase DCLK3 (Homo sapiens), sequence (Q9C098 whole entry): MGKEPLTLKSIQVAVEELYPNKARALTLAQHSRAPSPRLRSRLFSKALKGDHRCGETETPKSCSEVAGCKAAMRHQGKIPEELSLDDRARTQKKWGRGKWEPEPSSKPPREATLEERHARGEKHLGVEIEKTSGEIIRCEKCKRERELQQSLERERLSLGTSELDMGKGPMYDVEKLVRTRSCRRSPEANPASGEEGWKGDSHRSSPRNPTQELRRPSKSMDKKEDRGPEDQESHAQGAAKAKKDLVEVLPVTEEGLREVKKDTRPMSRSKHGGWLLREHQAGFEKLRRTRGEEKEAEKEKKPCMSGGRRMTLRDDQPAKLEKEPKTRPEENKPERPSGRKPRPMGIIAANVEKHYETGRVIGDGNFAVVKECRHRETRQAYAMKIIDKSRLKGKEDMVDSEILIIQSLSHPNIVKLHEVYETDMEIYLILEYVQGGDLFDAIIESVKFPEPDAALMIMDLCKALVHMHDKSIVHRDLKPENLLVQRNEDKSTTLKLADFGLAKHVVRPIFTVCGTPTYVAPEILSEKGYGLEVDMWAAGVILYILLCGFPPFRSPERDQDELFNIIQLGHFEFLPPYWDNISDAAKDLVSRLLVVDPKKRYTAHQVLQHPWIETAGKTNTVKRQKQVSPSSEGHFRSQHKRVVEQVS
Mitogen-activated protein kinase kinase kinase 5 (Homo sapiens), sequence (Q99683 whole entry): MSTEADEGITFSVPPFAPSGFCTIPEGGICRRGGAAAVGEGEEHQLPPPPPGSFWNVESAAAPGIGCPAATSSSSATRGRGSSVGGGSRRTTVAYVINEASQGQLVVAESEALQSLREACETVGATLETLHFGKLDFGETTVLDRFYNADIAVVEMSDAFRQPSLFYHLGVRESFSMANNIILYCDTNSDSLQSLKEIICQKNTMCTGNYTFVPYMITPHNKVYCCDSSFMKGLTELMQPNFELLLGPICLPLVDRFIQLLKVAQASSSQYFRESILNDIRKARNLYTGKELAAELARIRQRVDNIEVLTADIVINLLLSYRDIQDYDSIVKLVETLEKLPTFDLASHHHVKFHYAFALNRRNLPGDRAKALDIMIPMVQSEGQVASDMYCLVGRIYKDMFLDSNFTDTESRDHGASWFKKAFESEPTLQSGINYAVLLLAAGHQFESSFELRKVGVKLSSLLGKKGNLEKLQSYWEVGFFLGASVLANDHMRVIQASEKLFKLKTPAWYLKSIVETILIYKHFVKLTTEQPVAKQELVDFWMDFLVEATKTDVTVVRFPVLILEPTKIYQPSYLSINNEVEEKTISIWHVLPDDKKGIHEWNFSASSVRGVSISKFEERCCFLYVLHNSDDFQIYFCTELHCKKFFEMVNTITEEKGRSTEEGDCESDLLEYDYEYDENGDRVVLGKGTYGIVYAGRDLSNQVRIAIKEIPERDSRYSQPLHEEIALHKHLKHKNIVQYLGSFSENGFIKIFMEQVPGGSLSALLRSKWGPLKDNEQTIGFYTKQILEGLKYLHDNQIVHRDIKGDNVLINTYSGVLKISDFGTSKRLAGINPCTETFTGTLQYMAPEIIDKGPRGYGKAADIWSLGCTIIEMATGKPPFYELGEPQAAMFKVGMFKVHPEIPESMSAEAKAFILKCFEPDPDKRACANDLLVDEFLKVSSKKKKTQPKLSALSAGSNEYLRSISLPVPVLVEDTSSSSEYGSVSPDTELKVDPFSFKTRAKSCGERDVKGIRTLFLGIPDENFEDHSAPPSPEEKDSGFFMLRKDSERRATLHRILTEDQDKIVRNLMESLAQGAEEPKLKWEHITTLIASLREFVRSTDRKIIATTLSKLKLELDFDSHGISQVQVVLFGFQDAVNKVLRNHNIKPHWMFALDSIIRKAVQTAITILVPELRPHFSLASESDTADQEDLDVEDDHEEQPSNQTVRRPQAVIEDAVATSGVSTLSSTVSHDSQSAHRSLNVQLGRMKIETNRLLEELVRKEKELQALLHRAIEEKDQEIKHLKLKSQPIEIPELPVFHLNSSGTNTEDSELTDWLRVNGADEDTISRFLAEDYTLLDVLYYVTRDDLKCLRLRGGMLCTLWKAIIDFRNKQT
Serine/threonine-protein kinase Nek6 (Homo sapiens), sequence (Q9HC98 whole entry): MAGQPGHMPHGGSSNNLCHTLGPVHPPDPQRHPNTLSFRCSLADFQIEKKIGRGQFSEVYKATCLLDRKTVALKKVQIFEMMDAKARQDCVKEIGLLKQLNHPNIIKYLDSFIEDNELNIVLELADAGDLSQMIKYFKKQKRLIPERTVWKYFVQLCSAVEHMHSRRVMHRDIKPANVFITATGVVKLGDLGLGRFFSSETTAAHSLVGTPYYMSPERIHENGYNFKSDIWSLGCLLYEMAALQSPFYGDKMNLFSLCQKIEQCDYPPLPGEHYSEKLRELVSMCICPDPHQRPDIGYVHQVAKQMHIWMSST
Homeodomain-interacting protein kinase 2 (Homo sapiens), sequence (Q9H2X6 whole entry, looked up): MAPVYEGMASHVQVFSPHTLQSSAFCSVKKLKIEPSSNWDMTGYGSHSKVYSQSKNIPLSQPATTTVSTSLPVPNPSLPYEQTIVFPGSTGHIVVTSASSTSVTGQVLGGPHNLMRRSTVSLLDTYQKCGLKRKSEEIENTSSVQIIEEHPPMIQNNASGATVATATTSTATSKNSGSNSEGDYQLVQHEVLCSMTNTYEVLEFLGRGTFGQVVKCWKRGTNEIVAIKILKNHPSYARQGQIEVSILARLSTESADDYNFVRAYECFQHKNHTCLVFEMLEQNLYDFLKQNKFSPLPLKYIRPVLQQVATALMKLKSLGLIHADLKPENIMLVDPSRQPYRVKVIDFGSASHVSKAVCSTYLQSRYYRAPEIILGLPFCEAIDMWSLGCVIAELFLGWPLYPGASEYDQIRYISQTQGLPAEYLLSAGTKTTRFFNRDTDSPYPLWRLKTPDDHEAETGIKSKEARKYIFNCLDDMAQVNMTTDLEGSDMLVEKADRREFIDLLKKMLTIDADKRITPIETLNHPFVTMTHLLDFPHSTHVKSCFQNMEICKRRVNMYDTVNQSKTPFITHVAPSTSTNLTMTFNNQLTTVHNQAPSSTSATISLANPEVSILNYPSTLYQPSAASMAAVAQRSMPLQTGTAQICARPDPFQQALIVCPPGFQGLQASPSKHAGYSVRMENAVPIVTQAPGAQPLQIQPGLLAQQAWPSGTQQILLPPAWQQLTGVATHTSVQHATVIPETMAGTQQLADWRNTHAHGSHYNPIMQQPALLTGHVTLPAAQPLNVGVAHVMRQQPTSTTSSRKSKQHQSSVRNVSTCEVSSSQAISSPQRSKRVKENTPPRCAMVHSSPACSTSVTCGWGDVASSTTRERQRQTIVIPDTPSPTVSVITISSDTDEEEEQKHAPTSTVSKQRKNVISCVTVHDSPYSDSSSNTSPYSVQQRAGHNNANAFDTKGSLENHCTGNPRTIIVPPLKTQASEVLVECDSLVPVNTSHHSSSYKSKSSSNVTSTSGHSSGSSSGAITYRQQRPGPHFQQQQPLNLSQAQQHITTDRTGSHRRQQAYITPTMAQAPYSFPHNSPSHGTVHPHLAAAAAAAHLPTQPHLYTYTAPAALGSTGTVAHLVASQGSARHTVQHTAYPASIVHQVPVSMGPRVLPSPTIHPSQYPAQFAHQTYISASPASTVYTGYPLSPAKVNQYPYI
Calcium/calmodulin-dependent protein kinase type 1 (Homo sapiens), sequence (Q14012 whole entry, looked up): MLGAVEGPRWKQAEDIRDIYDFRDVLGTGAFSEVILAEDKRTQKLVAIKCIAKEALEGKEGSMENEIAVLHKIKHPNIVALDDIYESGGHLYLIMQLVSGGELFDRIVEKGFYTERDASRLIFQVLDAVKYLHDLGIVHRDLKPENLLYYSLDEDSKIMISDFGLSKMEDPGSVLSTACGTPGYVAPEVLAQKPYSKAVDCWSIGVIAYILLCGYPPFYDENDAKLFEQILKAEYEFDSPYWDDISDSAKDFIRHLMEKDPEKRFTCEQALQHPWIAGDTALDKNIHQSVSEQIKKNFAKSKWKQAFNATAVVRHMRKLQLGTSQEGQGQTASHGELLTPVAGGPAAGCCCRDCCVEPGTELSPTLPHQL

COc1cc(-c2cn([C@H]3CCc4c(F)cccc4N(CC(F)(F)F)C3=O)nn2)ccc1-n1cnc(C)c1 was tested, and the residual activity [1] was 100%, the residual activity [2] was 0% and the inhibition [3] was 7.61%. For the same molecule, the residual activity [4] was 100%, the residual activity [5] was 99% and the residual activity [6] was 100%. It also gave a residual activity [7] of 100%, a residual activity [8] of 100% and a residual activity [9] of 100%. For the same molecule, the residual activity [10] was 100%, the residual activity [11] was 93% and the residual activity [12] was 100%. The residual activity [13] was 100%, the residual activity [14] was 100% and the residual activity [15] was 100%. The residual activity [16] was 100%, the residual activity [17] was 100% and the residual activity [18] was 100%. For the same molecule, the residual activity [19] was 0%, the residual activity [20] was 100% and the residual activity [21] was 100%. For the same molecule, the residual activity [22] was 100%, the residual activity [23] was 86% and the residual activity [24] was 92%. The residual activity [25] was 100%, the residual activity [26] was 100% and the residual activity [27] was 100%. For the same molecule, the residual activity [28] was 100%, the residual activity [29] was 100% and the residual activity [30] was 94%. For the same molecule, the residual activity [31] was 100%, the residual activity [32] was 94% and the residual activity [33] was 100%. For the same molecule, the residual activity [34] was 100%, the residual activity [35] was 100% and the residual activity [36] was 100%. The residual activity [37] was 95%, the residual activity [38] was 100% and the residual activity [39] was 100%. It also gave a residual activity [40] of 75%, a residual activity [41] of 86% and a residual activity [42] of 77%. For the same molecule, the residual activity [43] was 100%, the residual activity [44] was 96% and the residual activity [45] was 100%.
For COc1cc(-c2cn([C@H]3CCc4ccccc4N(CC(F)(F)F)C3=O)nn2)ccc1-n1ccc(C)n1, the residual activity [1] was 100%, the residual activity [2] was 100% and the inhibition [3] was 9.69%. The residual activity [4] was 97%, the residual activity [5] was 100% and the residual activity [6] was 100%. The residual activity [7] was 100%, the residual activity [8] was 100% and the residual activity [9] was 97%. It also gave a residual activity [10] of 100%, a residual activity [11] of 100% and a residual activity [12] of 97%. The residual activity [13] was 100%, the residual activity [14] was 100% and the residual activity [15] was 100%. The residual activity [16] was 74%, the residual activity [17] was 92% and the residual activity [18] was 87%. The residual activity [19] was 100%, the residual activity [20] was 72% and the residual activity [21] was 92%. For the same molecule, the residual activity [22] was 92%, the residual activity [23] was 100% and the residual activity [24] was 100%. For the same molecule, the residual activity [25] was 82%, the residual activity [26] was 100% and the residual activity [27] was 100%. For the same molecule, the residual activity [28] was 93%, the residual activity [29] was 100% and the residual activity [30] was 94%. The residual activity [31] was 80%, the residual activity [32] was 100% and the residual activity [33] was 87%. For the same molecule, the residual activity [34] was 100%, the residual activity [35] was 100% and the residual activity [36] was 100%. It also gave a residual activity [37] of 100%, a residual activity [38] of 67% and a residual activity [39] of 85%. It also gave a residual activity [40] of 84%, a residual activity [41] of 92% and a residual activity [42] of 87%. The residual activity [43] was 97%, the residual activity [44] was 100% and the residual activity [45] was 100%.

— ChEMBL document CHEMBL4507289, “Data for DCP probe GSM1” (2021)
